Series [1] concerns Human MoDCs. Put plainly: Activin-A secretion by stimulated MoDCs. It is filed as cell-based. The following applies: MoDCs in GM-CSF and IL-4, 2-72 hours. As for the experimental part: Human MoDCs were co-cultured, in a medium containing both GM-CSF and IL-4, with one of (i) intact E. coli, (ii) CD40L, (iii) a TLR ligand (LPS, R848, Poly I:C, or Pam3Cys, which bind, respectively, to TLR4, 7/8, 3, and 2/6), or (iv) one of the inflammatory mediators PGE2 or ATP. Culture was carried out for from 2-72 hours. Supernatants were collected, and assayed for activin-A, using standard methods.

Series [2] deals with Human NK cells. Put plainly: IFN-γ ELISA of purified NK cells. The following applies: for IFN-γ production: NK cells. It is filed as cell-based. As for the experimental part:
A total of 1×10^5 highly purified human NK cells were cultured for 20 hours in medium supplemented with 20 U/ml IL-2, and 10 ng/ml IL-12. Either human recombinant activin-A, or TGF-β was added to the cultures, at concentrations of 10, 50 and 100 ng/ml. Supernatants were then tested for IFN-γ via ELISA, using standard methods. In these experiments 1×10^5 highly purified human NK cells were cultured as above, but were cultured with Poly I:C (10 μg/ml), or LPS (100 ng/ml), with or without 10, 50, or 100 ng/ml of recombinant human activin-A. In some cases, the known compound “SB431542,” which blocks activin-A binding to receptors was added. IFN-γ was then measured via ELISA, or by intracellular cytokine staining after 16 hours of culture, via addition of 1 μg/ml BFA, to prevent cytokine release. The impact of activin-A on production of IFN-γ by NK cells, in the absence of dendritic cells, was ascertained. Purified NK cells (1×10^5) were cultured in 96 well-plants, in media that was supplemented with 20 U/ml IL-2 and 10 ng/ml, IL-12, in the absence of, or with increasing concentrations of either activin-A, or TGF-β. Culture supernatants were assayed for IFN-γ after 24 hours of culture, using ELISAs, as described supra. As in the prior experiments, 1×10^5 purified NK cells were cultured in media supplemented with IL-2 only, or IL-2 plus IL-12, either with or without one of poly I:C or LPS, in the presence or absence of increased levels of activin-A.

The subject of series [3] is MoDCs. The experiment in a line: qRT-PCR kinetics of activin receptor mRNA in stimulated MoDCs. It counts as cell-based, human. As for the experimental part: In follow up experiments, the kinetics of gene expression described in Example 1 were studied, by stimulating MoDCs with either of trimeric CD40L or LPS, via quantitative real time PCR, or “qRT-PCR,” using standard methods and primers specific for activin βA and the activin receptor molecules ALK-2, and ALK-4. The primers differed from those used in the RT-PCR work, described supra. Stimulus was accomplished with 2 μg/ml of CD40L trimer, or 100 ng/ml of E. coli derived LPS for anywhere from 2-24 hours. As a control, MoDCs were cultured in GM-CSF plus IL-4 for the same length of time.

The subject of series [4] is NK cells. Put plainly: NK cell viability by caspase and PI staining. It counts as cell-based, human. The following applies: 24 hours. The procedure:
With respect to testing viability, 1×10^5 purified NK cells were cultured as described supra, in 96 well-plates. After 24 hours of culture, cells were stained with antibodies to polycaspase, caspase 3/7, caspase 8 and PI.

Series [5] deals with NK cells (target cells K562 or Jurkat cells). Put plainly: NK cell killing of calcein-labeled target cells. It counts as cell-based, human. The note with it: 100 ng/ml, 3 days culture, K562 or Jurkat targets, 4 hours. The procedure:
1×10^6 purified NK cells were cultured in 24 well-plates, either with a high dose of IL-2 (100 U/ml), or a combination of 20 U/ml of IL-2 and IL-12. The culturing took place in the absence of either of activin-A or TGF-β or 100 ng/ml of one of them. The culture continued for 3 days.
After the 3 days of culture, the NK cells were combined with target cells K562 or Jurkat cells, at effector (NK cells): target (K562 or Jurkat cells) ratios of 5:1, 2:1, and 0.1:1. The target cells had been labeled with calcein previously. The total number of labeled target cells was 2×10^4, and the mixture was incubated for 4 hours. The efficiency of killing was determined by measuring calcein dye release via spectrometry.

Series [6] relates to NK cells. The experiment in a line: NKp30 expression on NK cells by flow cytometry. It is filed as cell-based, human. The following applies: NK cells after 3 day culture, 100 ng/ml. As for the experimental part: In order to investigate the mechanism behind these differences, the same NK cells were purified and cryopreserved immediately after the 3 day culture period. The cells were thawed, washed, and stained for NCR. NKp30, with expression levels determined via flow cytometry. The level of expression was also determined using “ex vivo” samples, and NK cells that were cultured, without exposure to targets.
A general note: A flow cytometer gives signals particle by particle.

On to `Nc1ncnc2c1ncn2[C@@H]1O[C@H](COP(=O)(O)OP(=O)(O)OP(=O)(O)O)[C@@H](O)[C@H]1O` [ATP], for which the activin-A secretion entry in series [1] is “neither of these stimulated activin-A release above the levels observed in unstimulated MoDC cultures”.
Same read-out and setting: the same measure for `CCCCC[C@H](O)/C=C/[C@H]1[C@H](O)CC(=O)[C@@H]1C/C=C\CCCC(=O)O` [PGE2]: “neither of these stimulated activin-A release above the levels observed in unstimulated MoDC cultures”; for `CCOCc1nc2c(N)nc3ccccc3c2n1CC(C)(C)O` [R848]: “significant amounts of activin-A after 6 hours of stimulation”.
Turning to `NC(=O)c1ccc(-c2nc(-c3ccc4c(c3)OCO4)c(-c3ccccn3)[nH]2)cc1` [SB431542, reference compound], the “activin-A suppression of IFN-γ production” value in series [2] (added at a concentration of 10 for 30 minutes before activin-A) is given as “reversed”.
“CD40L: trimeric CD40L used to stimulate MoDCs”: the “activin RIIA mRNA” value in series [3] (after 2 hours) was “upregulated”. Further, the “ALK-4 mRNA” value in series [3] (after 24 hours of stimulation, vs controls) is on record as “significantly higher than controls”; in series [3] (early in the culture period), “downregulated”. In series [3] (over 2-24 hours), the “activin RIIB mRNA” value is reported as “early down regulation, followed by increases over time”.
Consider Pam3Cys, for which, in series [1], the activin-A secretion entry is recorded as “did not”.
For Poly I:C [reference compound], the “IFN-γ production induced by stimulus” value in series [2] (added to stimulated NK cultures) is given as “enhanced IFN-γ production”. The activin-A secretion entry in series [1] is on record as “significant amounts of activin-A after 6 hours of stimulation”.
As to TGF-β, in series [4], the “apoptosis (polycaspase, caspase 3/7, caspase 8, PI staining)” value was “no indication of apoptosis”. The IFN-γ production entry in series [2] (IL-2 and IL-12, 20 hours, 10, 50, 100 ng/ml) is reported as “suppressing the production of IFN-γ”; in series [2] (IL-2 and IL-12, 24 hours, increasing concentrations), “inhibiting IFN-γ production”. In series [5], the “killing ability of NK cells” value is given as “significantly suppressed”. Also, the NKp30 expression entry in series [6] is on record as “substantial down regulation of the receptor”.

(Values after patent US20100279409A1, “METHOD FOR MODIFYING CELLUAR IMMUNE RESONSE BY MODULATING ACTIVIN ACTIVITY” (priority 2007, published 2010).)
